This series can be described thus: gradient 5% acetonitrile 3 min, to 50% in 2 min, to 85% in 15 min, held 3 min, 100 µL/min. The following applies: column: Zorbax Extend-C18 2.1 x 50 mm; eluents: water / acetonitrile, 0.1% formic acid. Put shortly: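 The mobile phases were water and acetonitrile, each with 0.1% formic acid, pumped at 100 μL/min through a Zorbax Extend-C18 column (2.1 × 50 mm, 1.8 μm). Pure standards were injected as mixtures of ~100 molecules and detected by a quadrupole time-of-flight mass spectrometer in positive and negative ionization mode. Retention time came from computationally picked adduct peaks, each inspected by hand.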
With `COc1cc(-c2noc(-c3nn(-c4ccc(C)c(C)c4)ccc3=O)n2)cc(OC)c1OC`, the RP-LC retention time was 928 s.

The molecule `O=C(NC1CCN(c2cc(-c3ccc(F)cc3)[nH]n2)C1)c1ccc(F)cc1Cl` (centres undefined) displayed an RP-LC retention time of 740 s.

Turning to `CCc1ccc2[nH]c3c(c(=O)c2c1)CN(CC(=O)NCc1ccc(OC)cc1)CC3`, the RP-LC retention time is 612 s.

The molecule `COc1ccc(C(=O)N2CCC3(CC2)NC(=O)c2cc(F)ccc2N3C)cc1` had an RP-LC retention time of 730 s.

Consider `CCc1nn2c(CNS(=O)(=O)c3ccc(OC)cc3)c(-c3ccccc3)nc2s1`, for which the RP-LC retention time worked out at 886 s.

In turn, `COc1ccccc1NC(=O)N1CCCC1c1nncn1-c1ccccc1` (centres undefined) gave an RP-LC retention time of 711 s.

Take `Cc1ccc(Cl)cc1NC(=O)CSc1nnc2c3cc(-c4ccc(F)cc4)nn3ccn12`: the RP-LC retention time was 618 s.

`CCOC(=O)c1c(C)[nH]c(CCC(=O)NCCc2ccco2)c1C` had an RP-LC retention time of 788 s.

In turn, `COc1ccc(-n2nc(C)c3sc(N(C)CC(=O)N4CCN(c5ccccn5)CC4)nc32)cc1` had an RP-LC retention time of 669 s.

In the case of `O=C(c1cn(-c2cc(N3CCSCC3)ncn2)cn1)N1CC=C(c2ccccc2)CC1`, the RP-LC retention time was found to be 992 s.

Take `CNC(=O)Nc1cc(C)n(Cc2ccccc2)n1`: the RP-LC retention time came to 738 s.

For `Cc1ccc(C(=O)CSc2ccc(NC(=O)C(C)C)nn2)c(C)c1`, the RP-LC retention time was found to be 890 s.

Molecule `CCOC(=O)c1[nH]c(C)c(CCC(=O)N2CCC(C(=O)N3CCCCC3)CC2)c1C` returned an RP-LC retention time of 737 s.

Turning to `Cc1cc(C)cc(NC(=O)C2CCCN(S(=O)(=O)c3c[nH]c(C(=O)N4CCCC4)c3)C2)c1` (centres undefined), the RP-LC retention time worked out at 874 s.

`CCN1C(=O)C(C)(C(=O)Nc2cc(OC)ccc2OC)Oc2cccnc21` (centres undefined) registered an RP-LC retention time of 959 s.

The molecule `Cc1ccccc1CN1N=C(C(=O)N2CCC(C)CC2)S(=O)(=O)c2ccccc21` yielded an RP-LC retention time of 1050 s.

`COc1ccc(CN2CN=C(Nc3nc(C)c4cccc(OC)c4n3)NC2)cc1` yielded an RP-LC retention time of 750 s.

As to `CC(C)CNC(=O)NCCC1CCN(S(=O)(=O)c2ccc(F)cc2)CC1`, the RP-LC retention time came out at 824 s.

`Cc1ccc(C2Cn3nnc(-c4nc(-c5cccc(Cl)c5)no4)c3CO2)c(C)c1` (centres undefined) displayed an RP-LC retention time of 1400 s.

As to `CCN1CCn2cc(C(=O)NCc3ccc(C(C)C)cc3)nc2C1`, the RP-LC retention time worked out at 644 s.

In turn, `CCOC(=O)C1CCCN(c2ncc(S(=O)(=O)c3ccc(C)cc3)c(N)n2)C1` (centres undefined) had an RP-LC retention time of 983 s.

With `Cc1ccc2c(c1)cc(S(=O)(=O)c1ccccc1)c(=O)n2CC(=O)NC(C)C`, the RP-LC retention time was determined as 808 s.

Regarding `Cn1c(=O)c(N2CCN(C(=O)c3ccc(F)c(Cl)c3)CC2)nc2ccccc21`, the RP-LC retention time came to 966 s.

Take `CCCCCn1c(=O)c2c(nc3n2CCCCN3c2ccc(OCC)cc2)n(C)c1=O`: the RP-LC retention time was determined as 1190 s.

Molecule `CC(C)(C)c1ccc2c(c1)OCC(=O)N2Cc1nc(-c2ccc3c(c2)OCO3)no1` yielded an RP-LC retention time of 1200 s.

As to `CC(C)NC(=O)c1cc(C(C)(C)C)[nH]n1`, the RP-LC retention time worked out at 710 s.

On to `CC(C)c1ccc(NC(=O)CSc2ccc(NC(=O)C3CC3)nn2)cc1`, for which the RP-LC retention time was determined as 834 s.

Molecule `Cc1cc(Nc2ccc(F)cc2)nc2nn(Cc3cc(=O)n4ccccc4n3)c(=O)n12` yielded an RP-LC retention time of 836 s.

`COc1ccccc1OCC(=O)NCC1(c2cccs2)CCCC1` came in with an RP-LC retention time of 557 s.

`CCCCc1cc(=O)oc2cc(C)cc(OCC(=O)N3CCC4(O)CCCCC4C3)c12` (centres undefined) gave an RP-LC retention time of 933 s.

`COc1ccc(F)cc1S(=O)(=O)N1CCn2c(nn(C)c2=O)C1` displayed an RP-LC retention time of 654 s.

`CCOC(=O)N1CCN(S(=O)(=O)c2ccc(C(=O)Nc3cc(C)nn3C)cc2)CC1` gave an RP-LC retention time of 687 s.

Molecule `CC(C)c1nc2cc3c(cc2n1CC(=O)Nc1ccccc1)OCCO3` yielded an RP-LC retention time of 674 s.

`COc1cc(-c2nc3ncccn3c2Nc2cccc(C(F)(F)F)c2)ccc1O` showed an RP-LC retention time of 700 s.

Molecule `Clc1ccc(Cc2noc(Cc3nc(-c4ccccc4)cs3)n2)cc1` had an RP-LC retention time of 1170 s.

Molecule `CC1Oc2ccc(S(=O)(=O)N3CCC(C(=O)N4CCCc5ccccc54)CC3)cc2NC1=O` (centres undefined) registered an RP-LC retention time of 891 s.

Take `COC(=O)c1ncn2c1C(=O)N(c1cc(C)ccc1C)C(C)(C(=O)NCc1ccccc1)C2` (centres undefined): the RP-LC retention time came to 731 s.

Consider `COc1ccc(Cl)cc1C(=O)Nc1nc2c(s1)Cc1c(Br)ccc(OC)c1-2`, for which the RP-LC retention time is 1350 s.

For `Cc1ccc(-c2n[nH]c(CCNC(=O)c3ccc(S(=O)(=O)N4CCOCC4)cc3)n2)cc1`, the RP-LC retention time came to 704 s.

Consider `CCC(CC)C(=O)Nc1nc(-c2ccc3c(c2)N(C)C(=O)CO3)cs1`, for which the RP-LC retention time was 929 s.

`CC(=O)Nc1cc(C(=O)N2CCN(c3cc(C)ccc3C)CC2)c2ccc(C)nc2c1` showed an RP-LC retention time of 1250 s.

As to `CC(C)Cc1nc(CNC(=O)c2coc(C3CC3)n2)no1`, the RP-LC retention time worked out at 808 s.

`CCOC(=O)C1CCN(C(=O)CN2C(=O)COc3ccc(C(=O)N(C)C)cc32)CC1` displayed an RP-LC retention time of 648 s.

As for `CS(=O)(=O)N1CC(n2cc(C(=O)NCC3CC3)nn2)C1`, the RP-LC retention time is 645 s.

On to `CCN1CCn2cc(S(=O)(=O)NCc3ccccc3F)cc2C1=O`, for which the RP-LC retention time is 685 s.

Molecule `CC1CCCN(CC2CCN(S(=O)(=O)c3ccc(F)cc3Cl)CC2)C1` (centres undefined) registered an RP-LC retention time of 673 s.

Consider `CCOC(=O)c1cnc(NC(=O)c2ccc(S(=O)(=O)N3CCCCC3)cc2)s1`, for which the RP-LC retention time was determined as 882 s.

Molecule `COc1ccc(-c2csc(NC(=O)CS(=O)(=O)c3ccc(C)cc3)n2)c(OC)c1` showed an RP-LC retention time of 1010 s.

The molecule `Cn1cccc1C(=O)Nc1cnn(-c2ncc(N3CCCC3)cn2)c1` gave an RP-LC retention time of 789 s.

In turn, `Cc1nnc(-c2cn(CC(=O)Nc3cccc(F)c3)c3ccccc23)o1` came in with an RP-LC retention time of 755 s.

`c1ccc(C(O[C@@H]2CCCN(CCc3ccc4c(c3)OCO4)C2)c2ccccc2)cc1`: the RP-LC retention time is 961 s.

Turning to `COc1ccc(OC)c(NS(=O)(=O)c2cc3c(s2)CCN(C(=O)C2CCC2)C3)c1`, the RP-LC retention time amounted to 866 s.

For `COc1cc(NC(=O)Nc2c(-c3ccc(F)cc3)nc3ccccn23)cc(OC)c1`, the RP-LC retention time worked out at 678 s.

As for `COc1cccc(Nc2nc(C)c(C(=O)Nc3cc(F)cc(F)c3)s2)c1`, the RP-LC retention time came out at 1040 s.

Turning to `O=c1ccc(-c2nc(-c3cccc(Cl)c3)no2)cn1Cc1ccncc1`, the RP-LC retention time turned out to be 722 s.

In the case of `Cc1cccc(CNS(=O)(=O)c2c(C)sc(C)c2-c2n[nH]c(C)c2C)c1`, the RP-LC retention time worked out at 1070 s.

`CCOC(=O)C1CCN(C(=O)c2cn(-c3cc(N4CCC(C)CC4)ncn3)cn2)CC1` came in with an RP-LC retention time of 941 s.

Molecule `COc1cccc(CNC(=O)NCCC2CCN(S(=O)(=O)c3ccccc3)CC2)c1` showed an RP-LC retention time of 821 s.

On to `Cc1ccc(-c2nnc(N3CCC(C(=O)NCCCN4CCOCC4)CC3)o2)cc1`, for which the RP-LC retention time is 608 s.

For the molecule `CCc1ccc(OCc2nc(C)c(C(=O)Nc3nc(-c4ccc(F)cc4)cs3)s2)cc1`, the RP-LC retention time turned out to be 1320 s.

`O=C(Nc1ccc(F)cc1)C1CCCN(c2nc3ccsc3c(=O)n2Cc2ccc(F)cc2)C1` (centres undefined) came in with an RP-LC retention time of 996 s.

As to `CC(=O)N1CCN(C2=NC(=O)/C(=C\c3ccc(O)c([N+](=O)[O-])c3)S2)CC1`, the RP-LC retention time is 589 s.

For `COCc1cc(=O)n(CC(=O)Nc2cc(C(F)(F)F)ccc2Cl)c(N2CCOCC2)n1`, the RP-LC retention time is 1060 s.

As for `COc1ccccc1NC(=O)C1CCCN(S(=O)(=O)c2cc(-c3noc(C)n3)cs2)C1` (centres undefined), the RP-LC retention time is 964 s.

As for `CCN1C(=O)Cc2ccccc2C1C(=O)NCCOC` (centres undefined), the RP-LC retention time was 610 s.

For `COc1cccc(CN2C[C@@H]3C(=O)N(CCCN4CCCC4=O)C(=O)[C@@H]3C2)c1`, the RP-LC retention time stood at 598 s.

As to `CC(C)Cc1noc(C2(F)CCN(S(=O)(=O)c3ccccc3Cl)CC2)n1`, the RP-LC retention time stood at 674 s.

In turn, `O=c1n(Cc2ccccc2)nc2n1CCN(S(=O)(=O)c1cnc[nH]1)CC2` displayed an RP-LC retention time of 646 s.

`COc1ccc2[nH]c(=O)c(CCC(=O)NCCCN3CCCC(C)C3)cc2c1` (centres undefined) yielded an RP-LC retention time of 585 s.

In turn, `O=C(NC1CC1)c1ccc(OCC2CCCN(C(=O)c3c(F)cccc3F)C2)cc1` (centres undefined) displayed an RP-LC retention time of 820 s.

Regarding `COc1cccc(-n2cc(C(=O)OCCc3ccccn3)c3ccccc3c2=O)c1`, the RP-LC retention time is 714 s.

`CCc1cc(C2CCCN2Cc2ccc(OC)c(O)c2)on1` (centres undefined) came in with an RP-LC retention time of 588 s.

Turning to `Cc1nc2c(ccc3nc(NC(=O)c4cccc(F)c4)sc32)s1`, the RP-LC retention time was determined as 893 s.

Regarding `CC(=O)N1CCCN(C2=NS(=O)(=O)C(c3ccc(F)cc3)=C2C)CC1`, the RP-LC retention time was 690 s.

Turning to `COc1ccccc1CNC(=O)C1(c2ccc(NS(C)(=O)=O)cc2)CCCCC1`, the RP-LC retention time worked out at 893 s.

Regarding `Cc1nc2cc3c(cc2n1CC(=O)NCc1ccc(Cl)cc1)OCCO3`, the RP-LC retention time came to 652 s.

Turning to `Cn1nc(C(=O)N2CCN(c3cc(-c4ccccc4)ncn3)CC2)ccc1=O`, the RP-LC retention time amounted to 547 s.

Molecule `O=C(C1CCN(S(=O)(=O)Cc2ccc(F)cc2)CC1)N1CCCC1` showed an RP-LC retention time of 735 s.

For `O=C(Cc1ccc(Br)cc1)NC1CCN(c2cc(-c3ccc(F)cc3)[nH]n2)C1` (centres undefined), the RP-LC retention time is 780 s.
